Data published in paper PMC5834903, “Phytochemical profiling and in vitro screening for anticholinesterase, antioxidant, antiglucosidase and neuroprotective effect of three traditional medicinal plants for Alzheimer’s Disease and Diabetes Mellitus dual therapy” (BMC Complementary and Alternative Medicine, 2018).
≈ marks a conversion by molar mass, not a printed value.

Molecular target: T1, β–glucosidase
T1 construct: gene emulsin; sweet almond is only the usual commercial preparation
Test: p-nitrophenol release, […] nm
Type: biochemical
Details: p-nitrophenyl β-D-glucopyranoside […], phosphate buffer pH […] °C

O=C1O[C@H](CO)[C@@H](O)[C@H](O)[C@H]1O [D-Glucono-δ-lactone]
IC50 Values (μg/mL) / β-Glc: 10.68 ± 0.005 µg/mL (≈ 60 µM)
